Data published in ChEMBL document CHEMBL3886504, “Pyridinones/pyrazinones, method of making, and method of use thereof” (2016).

What follows are compounds tested against Tyrosine-protein kinase BTK (Homo sapiens, UniProt Q06187) (assay: Biochemical Btk Assay: A generalized procedure for a standard biochemical Btk Kinase Assay that can be used to test Formula I compounds is as follows. A master mix minus Btk enzyme is prepared containing 1x Cell Signaling kinase buffer (25 mM Tris-HCl, pH 7.5, 5 mM beta-glycerophosphate, 2 mM dithiothreitol, 0.1 mM Na3VO4, 10 mM MgCl2), 0.5 μM Promega PTK Biotinylated peptide substrate 2, and 0.01% BSA. A master mix plus Btk enzyme is prepared containing 1x Cell Signaling kinase buffer, 0.5 μM PTK Biotinylated peptide substrate 2, 0.01% BSA, and 100 ng/well (0.06 mU/well) Btk enzyme. Btk enzyme is prepared as follows: full length human wildtype Btk (accession number NM-000061) with a C-terminal V5 and 6xHis tag was subcloned into pFastBac vector for making baculovirus carrying this epitope-tagged Btk.).
Sequence of Tyrosine-protein kinase BTK (Q06187 whole entry): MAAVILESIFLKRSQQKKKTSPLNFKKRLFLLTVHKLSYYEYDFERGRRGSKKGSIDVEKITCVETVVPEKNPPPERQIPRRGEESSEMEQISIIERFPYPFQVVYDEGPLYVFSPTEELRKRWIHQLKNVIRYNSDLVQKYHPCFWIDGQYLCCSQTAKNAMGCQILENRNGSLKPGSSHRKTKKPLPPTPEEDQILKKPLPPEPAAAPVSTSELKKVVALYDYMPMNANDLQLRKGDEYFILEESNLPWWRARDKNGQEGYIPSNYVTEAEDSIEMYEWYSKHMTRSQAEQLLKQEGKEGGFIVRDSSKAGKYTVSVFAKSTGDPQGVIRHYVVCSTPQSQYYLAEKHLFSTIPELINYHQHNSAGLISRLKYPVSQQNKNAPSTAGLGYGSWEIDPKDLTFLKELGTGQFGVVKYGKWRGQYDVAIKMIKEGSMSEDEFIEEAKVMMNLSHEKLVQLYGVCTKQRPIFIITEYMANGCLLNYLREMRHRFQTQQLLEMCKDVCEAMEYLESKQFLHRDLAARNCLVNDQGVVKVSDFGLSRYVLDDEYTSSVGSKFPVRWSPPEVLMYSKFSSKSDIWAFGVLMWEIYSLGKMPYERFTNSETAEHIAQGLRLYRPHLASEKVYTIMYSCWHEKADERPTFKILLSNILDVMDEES
With Cc1c(-c2cn(C)c(=O)c(Nc3ccc(C4C(=O)N(C)CCN4C)cc3)n2)cccc1N1Cc2cc(C(C)(C)C)ccc2C1=O (stereo not drawn) the IC50 was 29.4 nM. Work on Cc1c(-c2cn(C)c(=O)c(Nc3ccc(C(=O)N4CCOCC4)cc3)n2)cccc1N1Cc2cc(C(C)(C)C)ccc2C1=O yielded an IC50 of 36.4 nM. Cc1c(-c2cn(C)c(=O)c(Nc3ccc(C4C(=O)N(C)CCN4C)cc3)n2)cccc1N1Cc2cc(N3CCCCC3)ccc2C1=O (stereo not drawn) gave an IC50 of 245 nM.
